This note sets out measurements from US7851467B2, “Carbamate compounds as 5-HT4 receptor agonists” (Theravance, Inc., priority 2005, dated 2010).

Structures are written as SMILES.

For this series, the target named is T1, hERG cardiac potassium channel (Homo sapiens, UniProt Q12809).
T1 construct: host or cells: CHO-K1
The experiment in a line: In vitro voltage clamp assay of inhibition of potassium ion current in whole cells expressing hERG. The series is classed as cell-based. The following applies: CHO-K1 cells stably transfected with hERG, pH 7.4, five-minute exposure. As for the experimental part: Assay 4: In Vitro Voltage Clamp Assay of Inhibition of Potassium Ion Current in Whole Cells Expressing the hERG Cardiac Potassium Channel
CHO-K1 cells stably transfected with hERG cDNA were obtained from Gail Robertson at the University of Wisconsin. Cells were held in cryogenic storage until needed. Cells were expanded and passaged in Dulbecco's Modified Eagles Medium/F12 supplemented with 10% fetal bovine serum and 200 μg/mL geneticin. Cells were seeded onto poly-D-lysine (100 μg/mL) coated glass coverslips, in 35 mm^2 dishes (containing 2 mL medium) at a density that enabled isolated cells to be selected for whole cell voltage-clamp studies. The dishes were maintained in a humidified, 5% CO2 environment at 37° C.
Extracellular solution was prepared at least every 7 days and stored at 4° C. when not in use. […]
The coverslips on which the cells were seeded were transferred to a recording chamber and perfused continuously. […] Peak current amplitudes during the repolarization phase were determined using pClamp software. […]
Peak current amplitudes during the repolarization phase were determined using pCLAMP software. […] The normalized current means and standard errors for each condition were calculated and plotted versus the time course of the experiment. […]
(The hERG channel carries a current that helps repolarise heart muscle cells.)

T1 sequence (Q12809 whole entry): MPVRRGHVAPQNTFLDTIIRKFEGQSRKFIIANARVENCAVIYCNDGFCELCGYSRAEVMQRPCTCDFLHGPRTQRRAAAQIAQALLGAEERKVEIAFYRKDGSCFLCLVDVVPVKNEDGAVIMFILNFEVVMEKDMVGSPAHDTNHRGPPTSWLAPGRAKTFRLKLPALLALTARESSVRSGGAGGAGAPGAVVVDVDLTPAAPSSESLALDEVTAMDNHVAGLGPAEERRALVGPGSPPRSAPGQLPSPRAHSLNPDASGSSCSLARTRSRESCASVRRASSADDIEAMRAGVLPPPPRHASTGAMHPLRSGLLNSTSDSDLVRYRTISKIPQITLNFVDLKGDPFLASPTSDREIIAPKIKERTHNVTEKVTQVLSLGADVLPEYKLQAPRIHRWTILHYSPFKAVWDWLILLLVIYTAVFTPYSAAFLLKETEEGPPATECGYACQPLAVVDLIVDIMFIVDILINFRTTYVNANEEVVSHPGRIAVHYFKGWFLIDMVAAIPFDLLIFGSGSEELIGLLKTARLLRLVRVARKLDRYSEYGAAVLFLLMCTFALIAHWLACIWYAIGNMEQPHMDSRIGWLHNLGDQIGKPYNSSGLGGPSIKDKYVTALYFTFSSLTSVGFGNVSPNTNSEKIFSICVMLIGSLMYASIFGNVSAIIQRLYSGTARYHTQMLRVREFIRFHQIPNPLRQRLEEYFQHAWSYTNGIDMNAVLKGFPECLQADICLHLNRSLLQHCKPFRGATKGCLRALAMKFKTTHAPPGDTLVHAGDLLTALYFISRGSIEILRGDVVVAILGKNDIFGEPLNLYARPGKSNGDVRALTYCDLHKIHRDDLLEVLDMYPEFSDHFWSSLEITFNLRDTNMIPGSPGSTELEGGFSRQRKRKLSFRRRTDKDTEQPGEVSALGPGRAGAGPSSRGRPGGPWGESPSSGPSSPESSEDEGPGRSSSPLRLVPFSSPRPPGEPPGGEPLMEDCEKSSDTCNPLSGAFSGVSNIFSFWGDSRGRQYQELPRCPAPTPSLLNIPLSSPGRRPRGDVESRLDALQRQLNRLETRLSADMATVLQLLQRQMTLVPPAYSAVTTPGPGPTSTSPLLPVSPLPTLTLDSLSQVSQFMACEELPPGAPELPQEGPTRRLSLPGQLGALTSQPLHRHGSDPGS

`CC(C)n1c(=O)n(C(=O)N[C@H]2C[C@H]3CC[C@@H](C2)N3CCCOC(=O)N2CCN(C(=O)C3CCCO3)CC2)c2ccccc21` (stereo partly drawn) [Example 1, 4-(tetrahydrofuran-2-carbonyl)piperazine-1-carboxylic acid 3-{(1S,3R,5R)-3-[(3-isopropyl-2-oxo-2,3-dihydrobenzoimidazole-1-carbonyl)amino]-8-aza-bicyclo[3.2.1]oct-8-yl}propyl ester] came in with an inhibition at 5 min, 3 µM of roughly 9%.

One may read the inhibition as the change of the read-out against control, counted positive when it falls. High values mean strong suppression, low ones little suppression.
